Assay results reported in patent US8691761B2, “Somatostatin receptor 2 antagonists” (priority 2006, dated 2014).
Where two headings read alike, the source gives them in different places. Bridge positions count the residues as written; N and C are the ends. Square brackets hold non-standard residues; d marks the D form. Peptide text beside a SMILES is read from it. * marks the point of attachment. DOTA = O=C(O)CN1CCN(CC(=O)O)CCN(CC(=O)*)CCN(CC(=O)O)CC1; Phe(4-NO2) = N[C@@H](Cc1ccc([N+](=O)[O-])cc1)C(=O)O; dPhe(4-NHCONH2) = NC(=O)Nc1ccc(C[C@@H](N)C(=O)O)cc1; Phe(4-Cl) = N[C@@H](Cc1ccc(Cl)cc1)C(=O)O; 2Nal = N[C@@H](Cc1ccc2ccccc2c1)C(=O)O; NMeK = CN[C@@H](CCCCN)C(=O)O

Assays:
hSSTR5 = target: T1, hSSTR5 (Homo sapiens, UniProt P35346); assay: Receptor autoradiography, displacement of 125I-[Leu8,D-Trp22,Tyr25]-SRIF-28 from membrane pellet sections; format: binding
T1 construct: expressed in transfected cells; host or cells: CHO-K1 or CCL39 cells
T1 sequence (P35346 whole entry): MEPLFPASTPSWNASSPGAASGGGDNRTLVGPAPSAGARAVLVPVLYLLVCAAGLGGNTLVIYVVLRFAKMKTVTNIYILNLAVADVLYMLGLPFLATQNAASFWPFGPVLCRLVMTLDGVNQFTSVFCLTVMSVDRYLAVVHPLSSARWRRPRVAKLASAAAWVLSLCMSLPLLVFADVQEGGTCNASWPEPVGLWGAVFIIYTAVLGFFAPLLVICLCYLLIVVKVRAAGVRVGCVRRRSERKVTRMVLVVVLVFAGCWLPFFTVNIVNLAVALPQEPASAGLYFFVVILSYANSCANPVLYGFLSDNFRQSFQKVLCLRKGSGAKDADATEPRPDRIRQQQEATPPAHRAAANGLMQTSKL

hSSTR4 = target: T2, hSSTR4 (Homo sapiens, UniProt P31391); assay: as above; format: binding
T2 construct: expressed in transfected cells; host or cells: CHO-K1 or CCL39 cells
T2 sequence (P31391 whole entry): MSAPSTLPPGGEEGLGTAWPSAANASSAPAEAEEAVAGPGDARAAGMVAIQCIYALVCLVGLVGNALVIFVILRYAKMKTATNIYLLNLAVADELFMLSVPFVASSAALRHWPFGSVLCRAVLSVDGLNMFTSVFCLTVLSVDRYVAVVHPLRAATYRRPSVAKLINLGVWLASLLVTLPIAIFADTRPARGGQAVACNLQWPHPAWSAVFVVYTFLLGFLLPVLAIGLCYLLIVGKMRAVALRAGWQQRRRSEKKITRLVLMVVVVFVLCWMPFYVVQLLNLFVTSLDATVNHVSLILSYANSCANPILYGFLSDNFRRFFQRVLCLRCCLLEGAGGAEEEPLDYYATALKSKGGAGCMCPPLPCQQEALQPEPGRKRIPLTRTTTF

hSSTR2 = target: T3, hSSTR2 (Homo sapiens, UniProt P30874); assay: as above; format: binding
T3 construct: expressed in transfected cells; host or cells: CHO-K1 or CCL39 cells
T3 sequence (P30874 whole entry): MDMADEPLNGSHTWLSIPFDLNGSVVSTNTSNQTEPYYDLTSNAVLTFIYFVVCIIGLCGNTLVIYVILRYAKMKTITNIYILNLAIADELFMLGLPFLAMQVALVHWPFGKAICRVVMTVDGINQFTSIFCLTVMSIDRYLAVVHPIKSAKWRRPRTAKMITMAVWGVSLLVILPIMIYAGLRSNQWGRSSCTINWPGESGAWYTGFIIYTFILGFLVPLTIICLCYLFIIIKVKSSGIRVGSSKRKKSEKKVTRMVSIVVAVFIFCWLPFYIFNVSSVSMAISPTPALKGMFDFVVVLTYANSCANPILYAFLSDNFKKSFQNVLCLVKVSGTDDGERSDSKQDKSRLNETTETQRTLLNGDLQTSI

hSSTR1 = target: T4, hSSTR1 (Homo sapiens, UniProt P30872); assay: as above; format: binding
T4 construct: expressed in transfected cells; host or cells: CHO-K1 or CCL39 cells
T4 sequence (P30872 whole entry): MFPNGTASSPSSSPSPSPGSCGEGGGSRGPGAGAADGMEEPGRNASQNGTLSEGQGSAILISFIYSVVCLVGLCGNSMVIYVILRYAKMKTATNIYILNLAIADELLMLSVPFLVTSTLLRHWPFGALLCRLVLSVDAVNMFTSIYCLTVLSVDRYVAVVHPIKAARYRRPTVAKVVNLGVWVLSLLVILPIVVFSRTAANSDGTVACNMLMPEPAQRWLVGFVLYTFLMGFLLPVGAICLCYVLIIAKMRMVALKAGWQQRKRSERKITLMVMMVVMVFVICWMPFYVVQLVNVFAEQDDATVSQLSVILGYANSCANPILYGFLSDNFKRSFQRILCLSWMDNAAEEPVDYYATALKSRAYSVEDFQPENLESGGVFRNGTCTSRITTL

hSSTR3 = target: T5, hSSTR3 (Homo sapiens, UniProt P32745); assay: as above; format: binding
T5 construct: expressed in transfected cells; host or cells: CHO-K1 or CCL39 cells
T5 sequence (P32745 whole entry): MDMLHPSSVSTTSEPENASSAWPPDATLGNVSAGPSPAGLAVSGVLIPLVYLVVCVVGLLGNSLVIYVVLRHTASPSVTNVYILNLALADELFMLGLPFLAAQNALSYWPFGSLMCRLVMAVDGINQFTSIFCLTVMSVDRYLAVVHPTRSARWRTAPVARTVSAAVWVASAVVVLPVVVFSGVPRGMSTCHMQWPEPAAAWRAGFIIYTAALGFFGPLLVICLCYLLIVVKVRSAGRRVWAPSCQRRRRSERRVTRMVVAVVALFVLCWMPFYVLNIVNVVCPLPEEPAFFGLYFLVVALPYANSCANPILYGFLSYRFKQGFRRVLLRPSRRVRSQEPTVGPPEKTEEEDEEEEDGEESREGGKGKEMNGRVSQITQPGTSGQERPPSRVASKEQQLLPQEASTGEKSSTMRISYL

sst2 [1] = target: T6, sst2 (Homo sapiens, UniProt P30874); assay: Calcium release assay in HEK-sst2 cells (Fluo-4NW); format: cell-based; design: expressed in transfected cells; host or cells: HEK293 (HEK-sst2); conditions: n ≧ 2
Method: Calcium release assay. Intracellular calcium release was measured in HEK-sst2 using the Fluo-4NW Calcium Assay kit as described previously (Magrys, et al. “The role of anti-alpha-enolase autoantibodies in pathogenicity of autoimmune-mediated retinopathy.” J. Clin. Immunol. 2007, 27, 181-192; Michel et al. “The Nef protein of human immunodeficiency virus is a broad-spectrum modulator of chemokine receptor cell surface levels that acts independently of classical motifs for receptor endocytosis and Galphai signaling.” Mol. Biol. Cell. 2006, 17, 3578-3590). In brief, HEK-sst2 cells were seeded (25,000 cells per well) in poly-D-lysine (20 μg/mL) coated 96 well plates and cultured for 1 day at 37° C. and 5% CO2 in culture medium. At the day of the experiment, the cells were washed with assay buffer (1×HBSS, 20 mM HEPES) containing 2.5 mM probenecid, and then loaded with 100 μL/well Fluo-4NW dye in assay buffer containing 2.5 mM probenecid for 30 min at 37° C. and 5% CO2 and then for further 30 min at room temperature. To measure the intracellular calcium mobilization after stimulation with the SRIF analogues to be tested, the dye-loaded cells were transferred to a SpectraMax M2^e (Molecular Devices, Sunnyvale, Calif.). Intracellular calcium mobilization was recorded in a kinetic for 60 sec at room temperature monitoring fluorescence emission at 520 nm (with λex=485 nm) in the presence of the analogues at the concentrations indicated. Maximum fluorescence (Fmax) was measured after the addition of 25 μM ionomycin. Baseline (control) measurements were taken for dye-loaded, untreated cells. Data are shown as percentage of Fmax (% Fmax) as reported previously. (Magrys, et al. J. Clin. Immunol. 2007, 27, 181-192; Michel et al. Mol. Biol. Cell. 2006, 17, 3578-3590). All experiments were repeated at least three times in triplicate.
Target sequence in this assay (P30874 whole entry): as the sequence (P30874 whole entry) above

HEK-sst2 tumors = assay: In vivo biodistribution of radiolabeled peptides in nude mice bearing HEK-sst2 tumors; conditions: mouse, in vivo
Method: The following protocol was used to determine biodistribution
Confirmation that the transfected tumors were indeed expressing solely sst2 was obtained in resected tumor samples tested in vitro with somatostatin receptor autoradiography using subtype selective ligands.
The biodistribution of was studied at 4 h or 24 h after injection. The organs of interest were collected, blotted dry, weighed, their radioactivity measured and the percentage of injected activity per gram (% IA/g) calculated.

human sst2A receptor = target: T7, human sst2A receptor (Homo sapiens, UniProt P30874); assay: Immunofluorescence-based sst2 internalization assay in HEK-sst2 cells; format: cell-based; conditions: n ≧ 2
T7 construct: expressed in transfected cells; host or cells: HEK293 (HEK-sst2)
T7 sequence (P30874 whole entry): as above
Procedure, shortened: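 HEK-sst2 cells treated with vehicle, 100 nM [Tyr^3]-octreotide, octreotide plus 100-fold excess test analogue, or test analogue alone at 10 μM. Receptor internalization visualized by immunofluorescence microscopy with sst2-specific antibody R2-88.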

sst3 = sst3 (Homo sapiens, UniProt P32745); conditions: literature value compared with own IC50; read-out: reported value at sst3 (Hocart et al.); cited from earlier work
Chain of sst3 (P32745 whole entry, species assumed): as the sequence (P32745 whole entry) above

sst2 [2] = target: T6, sst2; conditions: cited from earlier work
Target sequence in this assay (P30874 whole entry, species assumed): as the sequence (P30874 whole entry) above

[3] = Table 3, mean ± SEM when N ≧ 3, read-out: sst4 binding affinity (IC50)
[4] = Table 3, mean ± SEM when N ≧ 3, read-out: sst2 binding affinity (IC50)
[5] = Table 3, mean ± SEM when N ≧ 3, read-out: sst1 binding affinity (IC50)
[6] = Table 3, mean ± SEM when N ≧ 3, read-out: sst3 binding affinity (IC50)

Compound	IC50 (hSSTR5; Table 1, inhibition of radioligand binding to cloned human receptor, read-out: IC50 hSSTR5) [nM]	IC50 (hSSTR5; Table 3, mean ± SEM when N ≧ 3, read-out: sst5 binding affinity (IC50)) [nM]	IC50 (hSSTR4; Table 1, inhibition of radioligand binding to cloned human receptor, read-out: IC50 hSSTR4) [nM]	IC50 (hSSTR4; [3]) [nM]	IC50 (hSSTR2; Table 1, inhibition of radioligand binding to cloned human receptor, read-out: IC50 hSSTR2) [nM]	IC50 (hSSTR2; [4]) [nM]	IC50 (hSSTR1; Table 1, inhibition of radioligand binding to cloned human receptor, read-out: IC50 hSSTR1) [nM]	IC50 (hSSTR1; [5]) [nM]	IC50 (hSSTR3; Table 1, inhibition of radioligand binding to cloned human receptor, read-out: IC50 hSSTR3) [nM]	IC50 (hSSTR3; [6]) [nM]	Calcium release tested in vitro in HEK-sst2 cells (function) (sst2 [1])	tumor to kidney ratio (in words) (HEK-sst2 tumors)	sst2-internalization tested in vitro in HEK-sst2 cells (function) (human sst2A receptor)	IC50 (sst3) [nM]	IC50 (sst2 [2]; literature value compared with own IC50, read-out: reported value at sst2 (Hocart et al.)) [nM]	increase of binding affinity at sst2 versus 7 in Hocart et al. assay (sst2 [2]) [fold]
C[C@@H](O)[C@@H]1NC(=O)[C@H](CCCCN)NC(=O)[C@@H](Cc2ccc(NC(N)=O)cc2)NC(=O)[C@H](Cc2ccc(O)cc2)NC(=O)[C@H](NC(=O)[C@H](Cc2ccc([N+](=O)[O-])cc2)NC(=O)CN2CCN(CC(=O)O)CCN(CC(=O)O)CCN(CC(=O)O)CC2)CSSC[C@@H](C(=O)N[C@@H](Cc2ccc3ccccc3c2)C(N)=O)NC1=O [Peptide No. 5, DOTA-pNO2Phe-c[DCys-Tyr-DAph(Cbm)-Lys-Thr-Cys]-2Nal-NH2] ({DOTA}-[Phe(4-NO2)][dC]Y[dPhe(4-NHCONH2)]KTC[2Nal]-NH2; disulfide 2-7)	> 1000	> 1000	> 1000	> 1000	1.5	1.3	> 1000	> 1000	> 1000	> 1000	Antagonist	excellent tumor to kidney ratio	Antagonist			
C[C@@H](O)[C@@H]1NC(=O)[C@H](CCCCN)NC(=O)[C@@H](Cc2c[nH]c3ccccc23)NC(=O)[C@H](Cc2ccc(O)cc2)NC(=O)[C@H](NC(=O)[C@@H](N)Cc2ccc(Cl)cc2)CSSC[C@@H](C(=O)N[C@@H](Cc2ccc3ccccc3c2)C(N)=O)NC1=O [compound 7, H2N-Cpa-c[DCys-Tyr-DTrp-Lys-Thr-Cys]-2Nal-NH2, reference compound] (H-[Phe(4-Cl)][dC]Y[dW]KTC[2Nal]-NH2; disulfide 2-7)											Antagonist		Antagonist	93	26	
C[C@@H](O)[C@@H]1NC(=O)[C@H](CCCCN)N(C)C(=O)[C@@H](Cc2c[nH]c3ccccc23)NC(=O)[C@H](Cc2ccc(O)cc2)NC(=O)[C@H](NC(=O)[C@@H](N)Cc2ccc(Cl)cc2)CSSC[C@@H](C(=O)N[C@@H](Cc2ccc3ccccc3c2)C(N)=O)NC1=O [compound 8, H2N-Cpa-c[DCys-Tyr-DTrp-NMeLys-Thr-Cys]-2Nal-NH2, reference compound] (H-[Phe(4-Cl)][dC]Y[dW][NMeK]TC[2Nal]-NH2; disulfide 2-7)				715 ± 137		10 ± 3.5		> 1000		61 ± 14	Antagonist		Antagonist			5
